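Test compounds were applied to cells in 96-well plates for 48 hours at 5 doses. GI50 = concentration required for 50% inhibition of growth. TGI denotes the concentration required for complete inhibition of growth.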

Some test systems named below: U251 CNS; SK-MEL-28 melanoma; HOP-92 NSCLC; K-562 leukemia; SN12C renal; SK-MEL-2 melanoma; IGROV1 ovarian; A549 NSCLC; UACC-62 melanoma; PC-3 prostate.
Common to all, as to experiment: growth of human tumour cells (NCI), 48 h

On to `O=C(CC(=O)C1CCOC1=O)C(=O)Nc1cccc(Cl)c1` (centres undefined), for which the TGI in the test on U251 CNS, in the test with SK-MEL-28 melanoma, with HOP-92 NSCLC, with K-562 leukemia, with SN12C renal and with SK-MEL-2 melanoma was greater than 100 µM throughout. Also, the TGI in the test with IGROV1 ovarian, in the test on A549 NSCLC and in the test with UACC-62 melanoma was greater than 100 µM in each case.
With `O=[N+]([O-])c1cccc(C2=NOC(C3CCCCC3)C2)c1` (centres undefined), the TGI in the test with U251 CNS, with SK-MEL-28 melanoma, in the test with HOP-92 NSCLC, in the test with K-562 leukemia, in the test on SN12C renal and with SK-MEL-2 melanoma was greater than 100 µM each time. Besides, the TGI in the test on IGROV1 ovarian, in the test on A549 NSCLC and with UACC-62 melanoma was greater than 100 µM throughout.
Consider `CCCCCCCCCCNC(=O)CI`, for which the GI50 in the test on U251 CNS is 1580 nM; in the test on SK-MEL-28 melanoma, 1950 nM; in the test with K-562 leukemia, 938 nM; in the test with PC-3 prostate it was 1800 nM; in the test with SN12C renal, 1210 nM; with SK-MEL-2 melanoma it was 1940 nM. The GI50 in the test with IGROV1 ovarian is 120 nM; in the test on A549 NSCLC it was 5.44 µM; in the test on UACC-62 melanoma it was 1.69 µM. Moreover, the TGI in the test on U251 CNS turned out to be 3.14 µM; in the test with SK-MEL-28 melanoma, 3.91 µM; with K-562 leukemia, 3.95 µM; with PC-3 prostate, 3.56 µM; with SN12C renal, 2.8 µM; in the test with SK-MEL-2 melanoma it was 4.02 µM. In addition, the figures for the TGI in the test on IGROV1 ovarian, in the test on A549 NSCLC and with UACC-62 melanoma were 0.288 µM, 21.9 µM and 3.28 µM, respectively.
With `NC(=O)C(=O)CC(=O)c1ccccc1NC1=CC(=O)C(=O)c2ccccc21`, the TGI in the test with U251 CNS was greater than 100 µM; with SK-MEL-28 melanoma it was greater than 100 µM; in the test on HOP-92 NSCLC, greater than 81.2 µM; in the test with K-562 leukemia, greater than 100 µM; in the test on SN12C renal it was greater than 100 µM; in the test on SK-MEL-2 melanoma, greater than 100 µM. The TGI in the test with IGROV1 ovarian was greater than 100 µM; in the test with A549 NSCLC it was greater than 100 µM; in the test on UACC-62 melanoma, greater than 72.4 µM.
`O=C(N/C(=C\c1ccc([N+](=O)[O-])cc1)c1nc2ccccc2[nH]1)c1ccccc1`: the TGI in the test with U251 CNS, in the test on SK-MEL-28 melanoma, with HOP-92 NSCLC, in the test on K-562 leukemia, with SN12C renal and with SK-MEL-2 melanoma was greater than 100 µM each time. The TGI in the test on IGROV1 ovarian, with A549 NSCLC and in the test on UACC-62 melanoma was greater than 100 µM throughout.
Consider `CC(C)CCC[C@@H](C)C1CCC2[C@@H]3CC=C4C[C@@H](C(=O)NCCN(C)C)CC[C@]4(C)C3CC[C@@]21C` (some centres undefined), for which the TGI in the test on U251 CNS is 77.4 µM; in the test on SK-MEL-28 melanoma, greater than 100 µM; with HOP-92 NSCLC, 61.4 µM; with K-562 leukemia it was greater than 100 µM; in the test with SN12C renal, 46.7 µM; in the test with SK-MEL-2 melanoma, 23.6 µM. In addition, the TGI in the test with IGROV1 ovarian, in the test with A549 NSCLC and in the test with UACC-62 melanoma was greater than 100 µM each time.
`Cc1cc2c(c(C(N)=O)c1C)-c1ccccc1C2=O`: the TGI in the test with U251 CNS, in the test with SK-MEL-28 melanoma, in the test on HOP-92 NSCLC, with K-562 leukemia, in the test on SN12C renal and in the test on SK-MEL-2 melanoma was greater than 100 µM throughout. Besides, the TGI in the test on IGROV1 ovarian, in the test on A549 NSCLC and in the test on UACC-62 melanoma was greater than 100 µM in each case.
As for `CC(C)=C1CCC(CN(C)C)C1=O` (centres undefined), the TGI was greater than 100 µM with U251 CNS; 34 µM in the test with SK-MEL-28 melanoma; 40.6 µM with HOP-92 NSCLC; 31 µM in the test with K-562 leukemia; 33.6 µM with SN12C renal; 78.4 µM with SK-MEL-2 melanoma. Moreover, the TGI with IGROV1 ovarian is greater than 100 µM; with A549 NSCLC, greater than 100 µM; with UACC-62 melanoma, 35.1 µM.
As to `COC(=O)/C([Se]c1c(C)cc(C)cc1C)=C(/[Se]c1c(C)cc(C)cc1C)C(=O)OC`, the TGI in the test on U251 CNS, in the test on HOP-92 NSCLC, in the test on K-562 leukemia, with SN12C renal, in the test with SK-MEL-2 melanoma and in the test on IGROV1 ovarian was greater than 100 µM throughout. The TGI with A549 NSCLC and with UACC-62 melanoma was greater than 100 µM throughout.
With `CC1CC(O)C(=O)C(O[C@@H]2C[C@@H]3CC[C@@H]4[C@H](CC[C@]5(C)C(C6=CC(=O)OC6)CC[C@]45O)[C@@]3(C=O)C[C@H]2O)O1` (some centres undefined), the TGI in the test on U251 CNS was less than 0.0486 µM; with SK-MEL-28 melanoma it was 0.329 µM; with PC-3 prostate it was less than 0.0424 µM; with A549 NSCLC it was less than 0.0199 µM; in the test on UACC-62 melanoma it was 0.178 µM.
For `COc1ccc(-c2nc(-c3cc(OC)cc(OC)c3)[nH]c2-c2ccc(OC)cc2)cc1`, the GI50 in the test with SK-MEL-28 melanoma was greater than 100000 nM; with K-562 leukemia, 5020 nM; in the test with PC-3 prostate, 4000 nM; in the test with SN12C renal, greater than 100000 nM; in the test on IGROV1 ovarian, greater than 100000 nM; in the test with A549 NSCLC it was 5.31 µM. The GI50 with UACC-62 melanoma was 4.75 µM. Besides, the TGI with SK-MEL-28 melanoma, with K-562 leukemia, in the test on PC-3 prostate, with SN12C renal, with IGROV1 ovarian and with A549 NSCLC was greater than 100 µM each time. This compound registered a TGI with UACC-62 melanoma greater than 100 µM.
With `CCOCN1COCN(C)C1=O`, the TGI in the test with U251 CNS, in the test with SK-MEL-28 melanoma, in the test on HOP-92 NSCLC, in the test on K-562 leukemia, in the test with SN12C renal and in the test with SK-MEL-2 melanoma was greater than 100 µM in each case. The TGI with IGROV1 ovarian, with A549 NSCLC and with UACC-62 melanoma was greater than 100 µM in each case.
Turning to `Nc1nc(-c2ccc(Cl)c([N+](=O)[O-])c2)cs1`, the TGI with U251 CNS was greater than 100 µM; with HOP-92 NSCLC, 74.6 µM; in the test with K-562 leukemia it was greater than 100 µM; with SN12C renal, greater than 100 µM; in the test with SK-MEL-2 melanoma, greater than 100 µM; in the test on IGROV1 ovarian it was greater than 100 µM. In addition, the TGI in the test with A549 NSCLC and in the test on UACC-62 melanoma was greater than 100 µM throughout.
Consider `COc1ccc(C(=O)c2cc(OC)c(OC)c(OC)c2)cc1OC`, for which the TGI with U251 CNS, in the test with SK-MEL-28 melanoma, with K-562 leukemia, in the test with PC-3 prostate, in the test with SN12C renal and in the test with SK-MEL-2 melanoma was greater than 100 µM each time. Moreover, the TGI with IGROV1 ovarian, with A549 NSCLC and with UACC-62 melanoma was greater than 100 µM in each case.

The values above are taken from PubChem BioAssay (NCI).
